This note sets out measurements from US8574563B2 (Bristol-Myers Squibb Company, priority 2006, dated 2013).

Each structure is given as a SMILES string.

One assay concerns HCV 1b-377-neo replicon cells. Put plainly: HCV replicon assay, HCV 1b-377-neo replicon cells (1b FRET). The note with it: HCV 1b-377-neo replicon cells; HCV 1b genotype. The class given is cell-based, Hepatitis C virus genotype 1b. An outline of the steps:
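Compounds were tested in genotype 1b subgenomic replicon cells carrying a neomycin marker, alongside a matched replicon line with an NS5A Y2065H substitution that confers resistance to a reference NS5A inhibitor.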
(Replicon systems follow genome replication, usually without infectious particles.)
For `O=C(C(c1ccccc1)N1C2CCC1CC2)N1CCC[C@H]1c1ncc(-c2ccc(-c3ccc(-c4cnc([C@@H]5CCCN5C(=O)C(c5ccccc5)N5C6CCC5CC6)[nH]4)cc3)cc2)[nH]1` (stereo partly drawn) [Example M1, 7,7′-(4,4′-biphenyldiylbis(1H-imidazole-5,2-diyl(2S)-2,1-pyrrolidinediyl(2-oxo-1-phenyl-2,1-ethanediyl)))bis(7-azabicyclo[2.2.1]heptane)], the “EC50 range against HCV 1b (Table 2, Range)” value is listed as “>A”.

The same assay, now with this note: HCV 1b-377-neo replicon cells; HCV 1b genotype; read-out: EC50 range against HCV 1b (Table 2, Range).
Regarding `CCN(CC)[C@@H](C(=O)N1CCC[C@H]1c1ncc(-c2ccc(-c3ccc(-c4cnc([C@@H]5CCCN5C(=O)[C@@H](NC(=O)OC)C(C)C)[nH]4)cc3)cc2)[nH]1)C(C)(C)C` [Example M91x], the EC50 is 1 to 99 nM.

Staying with this assay, now noted: Hepatitis C virus, HCV 1b-377-neo replicon cells; HCV 1b genotype; read-out: EC50 range against HCV 1b (Table 2, Range).
`COC(=O)N[C@H](C(=O)N1[C@@H]2C[C@@H]2C[C@H]1c1nc(-c2ccc(-c3ccc(-c4c[nH]c([C@@H]5C[C@H]6C[C@H]6N5C(=O)[C@@H](NC(=O)OC)C5CC5)n4)cc3)cc2)c[nH]1)C1CC1` [Example M135, dimethyl (4,4′-biphenyl-diylbis(1H-imidazole-4,2-diyl(1R,3S,5R)-2-azabicyclo[3.1.0]hexane-3,2-diyl((1S)-1-cyclopropyl-2-oxo-2,1-ethanediyl)))biscarbamate]: the EC50 was 0.001 to 0.999 nM.
The same measure, in the same setting: in the case of `COC(=O)N[C@@H]1CC[C@H](C(=O)N2CCC[C@H]2c2ncc(-c3ccc(-c4ccc(-c5cnc([C@@H]6CCCN6C(=O)[C@@H](NC(=O)OC)[C@@H](C)OC)[nH]5)cc4)cc3)[nH]2)C1` [cj-86, methyl ((1R,3S)-3-(((2S)-2-(5-(4′-(2-((2S)-1-((2S)-3-methoxy-2-((methoxycarbonyl)amino)butanoyl)-2-pyrrolidinyl)-1H-imidazol-5-yl)-4-biphenylyl)-1H-imidazol-2-yl)-1-pyrrolidinyl)carbonyl)cyclopentyl)carbamate] it was 0.001 to 0.999 nM.
As to `COC(=O)N[C@@H](C(=O)N(C)[C@@H](C)c1ncc(-c2ccc(-c3ccc(-c4cnc([C@@H]5CCCN5C(=O)[C@H](NC(=O)OC)c5ccccc5)[nH]4)cc3)cc2)[nH]1)c1ccccc1` [Example 24-18-4, methyl ((1R)-2-((2S)-2-(5-(4′-(2-((1S)-1-(((2R)-2-((methoxycarbonyl)amino)-2-phenylacetyl)(methyl)amino)ethyl)-1H-imidazol-5-yl)-4-biphenylyl)-1H-imidazol-2-yl)-1-pyrrolidinyl)-2-oxo-1-phenylethyl)carbamate], the EC50 is 0.001 to 0.999 nM.
For the compound `COC(=O)N[C@@H](C)C(=O)N1CCC[C@H]1c1ncc(-c2ccc(-c3ccc(-c4cnc([C@@H]5CCCN5C(=O)[C@@H](NC5=NCCN5)C(C)C)[nH]4)cc3)cc2)[nH]1` [cj-11f, methyl ((1S)-2-((2S)-2-(5-(4′-(2-((2S)-1-(N-(4,5-dihydro-1H-imidazol-2-yl)-L-valyl)-2-pyrrolidinyl)-1H-imidazol-5-yl)-4-biphenylyl)-1H-imidazol-2-yl)-1-pyrrolidinyl)-1-methyl-2-oxoethyl)carbamate], the EC50 lay in the range of 1 to 99 nM.
The same measure, in the same setting: next, `COC(=O)N[C@H](C(=O)N1CCC[C@H]1c1ncc(-c2ccc(-c3ccc(-c4cnc([C@@H]5CCCN5C(=O)CN(C(C)C)C(C)C)[nH]4)cc3)cc2)[nH]1)C(C)C` [LS26, methyl ((1S)-1-(((2S)-2-(5-(4′-(2-((2S)-1-(N,N-diisopropylglycyl)-2-pyrrolidinyl)-1H-imidazol-5-yl)-4-biphenylyl)-1H-imidazol-2-yl)-1-pyrrolidinyl)carbonyl)-2-methylpropyl)carbamate]: 0.001 to 0.999 nM; `COC(=O)NC1(C(=O)N2CCC[C@H]2c2ncc(-c3ccc(-c4ccc(-c5cnc([C@@H]6CCCN6C(=O)C6(NC(=O)OC)CC6)[nH]5)cc4)cc3)[nH]2)CC1` [Example M6, dimethyl (4,4′-biphenyldiylbis(1H-imidazole-5,2-diyl(2S)-2,1-pyrrolidinediylcarbonyl-1,1-cyclopropanediyl))bis-carbamate]: 1000 to 10000 nM; `CNC(=O)c1nc([C@@H]2CCCN2C(=O)[C@@H](c2ccccc2)N2CCCCC2)[nH]c1-c1ccc(-c2ccc(-c3cnc([C@@H]4CCCN4C(=O)[C@@H](c4ccccc4)N4CCCCC4)[nH]3)cc2)cc1` [Example J27, N-methyl-2-((2S)-1-((2R)-2-phenyl-2-(1-piperidinyl)acetyl)-2-pyrrolidinyl)-5-(4′-(2-((2S)-1-((2R)-2-phenyl-2-(1-piperidinyl)acetyl)-2-pyrrolidinyl)-1H-imidazol-5-yl)-4-biphenylyl)-1H-imidazole-4-carboxamide]: 0.001 to 0.999 nM.
In the case of `CCN(CC)[C@@H](C(=O)N1C[C@@H](F)C[C@H]1c1ncc(-c2ccc(-c3ccc(-c4cnc([C@@H]5C[C@H](F)CN5C(=O)[C@H](C)NC(=O)OC)[nH]4)cc3)cc2)[nH]1)c1ccccc1` [JG-14, methyl ((1S)-2-((2S,4S)-2-(5-(4′-(2-((2S,4S)-1-((2R)-2-(diethylamino)-2-phenylacetyl)-4-fluoro-2-pyrrolidinyl)-1H-imidazol-5-yl)-4-biphenylyl)-1H-imidazol-2-yl)-4-fluoro-1-pyrrolidinyl)-1-methyl-2-oxoethyl)carbamate], the EC50 is 0.001 to 0.999 nM.
The same measure, in the same setting: next, `CC(=O)N[C@@H](C(=O)N1CCC[C@H]1c1ncc(-c2ccc(-c3ccc(-c4cnc([C@@H]5CCCN5C(=O)[C@H](NC(C)=O)C(C)C)[nH]4)cc3)cc2)[nH]1)C(C)C` [Example 27, N-((1R)-1-(((2S)-2-(5-(4′-(2-((2S)-1-((2R)-2-acetamido-3-methylbutanoyl)-2-pyrrolidinyl)-1H-imidazol-5-yl)-4-biphenylyl)-1H-imidazol-2-yl)-1-pyrrolidinyl)carbonyl)-2-methylpropyl)acetamide]: 1 to 99 nM; `COC(=O)N[C@H](C(=O)N1CCC[C@H]1c1ncc(-c2ccc(-c3ccc(-c4cnc([C@@H]5CCCN5C(=O)[C@H](NC(=O)OC)c5ccccc5)[nH]4)c(F)c3)cc2F)[nH]1)C(C)C` [Example D60, methyl ((1S)-1-(((2S)-2-(5-(3,3′-difluoro-4′-(2-((2S)-1-((2R)-2-((methoxycarbonyl)amino)-2-phenylacetyl)-2-pyrrolidinyl)-1H-imidazol-5-yl)-4-biphenylyl)-1H-imidazol-2-yl)-1-pyrrolidinyl)carbonyl)-2-methylpropyl) carbamate]: 0.001 to 0.999 nM.
The same measure, in the same setting: next, `CN(C)[C@@H](C(=O)N1CCC[C@H]1c1ncc(-c2ccc(-c3ccc(-c4[nH]c([C@@H]5CCCN5C(=O)[C@@H](c5ccccc5)N(C)C)nc4C(=O)OCc4ccccc4)cc3)cc2)[nH]1)c1ccccc1` [Example J22, benzyl 2-((2S)-1-((2R)-2-(dimethylamino)-2-phenylacetyl)-2-pyrrolidinyl)-5-(4′-(2-((2S)-1-((2R)-2-(dimethylamino)-2-phenylacetyl)-2-pyrrolidinyl)-1H-imidazol-5-yl)-4-biphenylyl)-1H-imidazole-4-carboxylate]: 0.001 to 0.999 nM; `O=C1N[C@H](C(=O)N2CCC[C@H]2c2ncc(-c3ccc(-c4ccc(-c5cnc([C@@H]6CCCN6C(=O)[C@@H]6CCOC(=O)N6)[nH]5)cc4)cc3)[nH]2)CCO1` [LS11, (4S,4′S)-4,4′-(4,4′-biphenyldiylbis(1H-imidazole-5,2-diyl(2S)-2,1-pyrrolidinediylcarbonyl))bis(1,3-oxazinan-2-one)]: 1000 to 10000 nM; `CC(C)[C@@H](C(=O)N1CCC[C@H]1c1nc(-c2ccc(-c3ccc(-c4cnc([C@@H]5CCCN5C(=O)[C@H](C(C)C)N(C)C(=O)OC(C)(C)C)[nH]4)cc3)cc2)c[nH]1)N(C)C(=O)OC(C)(C)C` [Example F30, tert-butyl ((1S)-1-(((2S)-2-(5-(4′-(2-((2S)-1-((2S)-2-((tert-butoxycarbonyl)(methyl)amino)-3-methylbutanoyl)-2-pyrrolidinyl)-1H-imidazol-4-yl)-4-biphenylyl)-1H-imidazol-2-yl)-1-pyrrolidinyl)carbonyl)-2-methylpropyl)methylcarbamate]: 1 to 99 nM.
`CC(=O)N[C@@H](C(=O)N1[C@@H]2C[C@@H]2C[C@H]1c1nc(-c2ccc(-c3ccc(-c4c[nH]c([C@@H]5C[C@H]6C[C@H]6N5C(=O)[C@H](NC(C)=O)C(C)C)n4)cc3)cc2)c[nH]1)C(C)C` [Example M143, N-((1R)-1-(((1R,3S,5R)-3-(4-(4′-(2-((1R,3S,5R)-2-((2R)-2-acetamido-3-methylbutanoyl)-2-azabicyclo[3.1.0]hex-3-yl)-1H-imidazol-4-yl)-4-biphenylyl)-1H-imidazol-2-yl)-2-azabicyclo[3.1.0]hex-2-yl)carbonyl)-2-methylpropyl)acetamide]: the concentration for a half-maximal effect (EC50) is 1 to 99 nM.
On the same count and under the same terms, next, `COC(=O)N[C@@H](C(=O)N1CCC[C@H]1c1ncc(-c2ccc(-c3ccc(-c4cnc([C@@H]5CCCN5C(=O)[C@H](C)c5ccccc5)[nH]4)cc3)cc2)[nH]1)c1ccccc1` [Example 84-76, methyl ((1R)-2-oxo-1-phenyl-2-((2S)-2-(5-(4′-(2-((2S)-1-((2R)-2-phenylpropanoyl)-2-pyrrolidinyl)-1H-imidazol-5-yl)-4-biphenylyl)-1H-imidazol-2-yl)-1-pyrrolidinyl)ethyl)carbamate]: 0.001 to 0.999 nM.
The same measure, in the same setting: next, `CCN(CC)CCC(NC(=O)OC)C(=O)N1CCC[C@H]1c1ncc(-c2ccc(-c3ccc(-c4cnc([C@@H]5CCCN5C(=O)[C@H](NC(=O)OC)c5ccccc5)[nH]4)cc3)cc2)[nH]1` (stereo partly drawn) [Example M66a, methyl ((1R)-2-((2S)-2-(5-(4′-(2-((2S)-1-(4-(diethylamino)-2-((methoxycarbonyl)amino)butanoyl)-2-pyrrolidinyl)-1H-imidazol-5-yl)-4-biphenylyl)-1H-imidazol-2-yl)-1-pyrrolidinyl)-2-oxo-1-phenylethyl)carbamate]: 100 to 999 nM; `CN(C)[C@@H](C(=O)N1CCC[C@H]1c1ncc(-c2ccc(-c3ccc(-c4cnc([C@@H]5CCCN5C(=O)[C@@H](c5ccccc5)N(C)C)[nH]4)cc3C(F)(F)F)cc2)[nH]1)c1ccccc1` [Example 130]: 0.001 to 0.999 nM.

In general, EC50 refers to the concentration giving half of the maximal effect.
